Source: PubChem BioAssay AID248 (DTP/NCI, 2004)
Inconclusive results and toxic doses are left out. No stated cut-off is given here; in the data, active means T/C of 150% or more; inactive means T/C below 125%.

Tested on: L1210 leukemia ip in BDF1 mice, survival T/C
Assay: NCI In Vivo Anticancer Drug Screen. Data for tumor model L1210 Leukemia (intraperitoneal) in B6D2F1 (BDF1) mice
Conditions: endpoint: mean survival time, higher = longer survival
Summary of the method: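 Transplantable tumor model; survival measured in treated vs vehicle control mice. Value = treated/control.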

[1] = dose: 100.0 mg/kg/injection, schedule: Q01DX009 (ip), vehicle: saline with Tween-80
[2] = dose: 100.0 mg/kg/injection, schedule: Q04DX003 (ip), vehicle: saline with Tween-80
[3] = dose: 200.0 mg/kg/injection, schedule: Q01DX009 (ip), vehicle: saline with Tween-80
[4] = dose: 100.0 mg/kg/injection, schedule: Q01DX001 (ip), vehicle: Klucel (hydroxypropylcellulose) (HPC)
[5] = dose: 200.0 mg/kg/injection, schedule: Q01DX001 (ip), vehicle: Klucel (hydroxypropylcellulose) (HPC)
[6] = dose: 50.0 mg/kg/injection, schedule: Q01DX009 (ip), vehicle: saline with Tween-80
[7] = dose: 100.0 mg/kg/injection, schedule: Q01DX001 (ip), vehicle: saline
[8] = dose: 200.0 mg/kg/injection, schedule: Q01DX001 (ip), vehicle: saline
[9] = dose: 400.0 mg/kg/injection, schedule: Q01DX001 (ip), vehicle: saline
[10] = dose: 50.0 mg/kg/injection, schedule: Q01DX009 (ip), vehicle: Klucel (hydroxypropylcellulose) (HPC)
[11] = dose: 100.0 mg/kg/injection, schedule: Q04DX003 (ip), vehicle: Klucel (hydroxypropylcellulose) (HPC)
[12] = dose: 200.0 mg/kg/injection, schedule: Q04DX003 (ip), vehicle: Klucel (hydroxypropylcellulose) (HPC)
[13] = dose: 50.0 mg/kg/injection, schedule: Q01DX009 (ip), vehicle: saline
[14] = dose: 100.0 mg/kg/injection, schedule: Q01DX009 (ip), vehicle: saline
[15] = dose: 200.0 mg/kg/injection, schedule: Q01DX009 (ip), vehicle: saline
[16] = dose: 100.0 mg/kg/injection, schedule: Q01DX009 (ip), vehicle: Klucel (hydroxypropylcellulose) (HPC)
[17] = dose: 200.0 mg/kg/injection, schedule: Q01DX009 (ip), vehicle: Klucel (hydroxypropylcellulose) (HPC)
[18] = dose: 400.0 mg/kg/injection, schedule: Q04DX003 (ip), vehicle: Klucel (hydroxypropylcellulose) (HPC)
[19] = dose: 400.0 mg/kg/injection, schedule: Q01DX009 (ip), vehicle: Klucel (hydroxypropylcellulose) (HPC)

Measured: T/C

Cc1ccc(S(=O)(=O)N/N=C2\CC3(Cl)CCC2C3)cc1 (centres undefined)
inactive: [1] 88 % of control | [2] 92 % of control | [3] 91 % of control | dose: 200.0 mg/kg/injection, schedule: Q04DX003 (ip), vehicle: saline with Tween-80 97 % of control | dose: 400.0 mg/kg/injection, schedule: Q04DX003 (ip), vehicle: saline with Tween-80 101 % of control

NC(=O)C(NC(=O)c1ccccc1)Sc1ccccc1 (centres undefined)
inactive: dose: 50.0 mg/kg/injection, schedule: Q01DX001 (ip), vehicle: Klucel (hydroxypropylcellulose) (HPC) 100 % of control | [4] 100 % of control | [5] 96 % of control

CSC(=S)NCC(=O)O
inactive: [6] 89 % of control | [1] 89 % of control | [3] 101 % of control

NC(=S)NN=C1CCCCCCC1
inactive: dose: 8.4 mg/kg/injection, schedule: Q01DX Z (ip), vehicle: methylcellulose (MC) 98 % of control | dose: 23.0 mg/kg/injection, schedule: Q01DX Z (ip), vehicle: methylcellulose (MC) 101 % of control | dose: 39.0 mg/kg/injection, schedule: Q01DX Z (ip), vehicle: methylcellulose (MC) 111 % of control

CC(CCO)CCC1OC1(C)C (centres undefined)
inactive: [7] 103 % of control | [8] 105 % of control | [9] 103 % of control

COc1ccccc1OCCOCCN(C)C1CCCCC1
inactive: dose: 12.5 mg/kg/injection, schedule: Q01DX009 (ip), vehicle: Klucel (hydroxypropylcellulose) (HPC) 93 % of control | dose: 25.0 mg/kg/injection, schedule: Q01DX009 (ip), vehicle: Klucel (hydroxypropylcellulose) (HPC) 94 % of control | dose: 25.0 mg/kg/injection, schedule: Q04DX002 (ip), vehicle: Klucel (hydroxypropylcellulose) (HPC) 102 % of control | [10] 96 % of control | dose: 50.0 mg/kg/injection, schedule: Q04DX002 (ip), vehicle: Klucel (hydroxypropylcellulose) (HPC) 105 % of control

Cc1cccc(NC(=O)/C=N/O)c1C
inactive: [11] 98 % of control | [12] 98 % of control

O=C1C(Cl)=C(N2CCOCC2)C(=O)C(Cl)=C1N1CCOCC1
inactive: dose: 50.0 mg/kg/injection, schedule: Q01DX001 (ip), vehicle: carboxymethylcellulose (CMC) 94 % of control | dose: 100.0 mg/kg/injection, schedule: Q01DX001 (ip), vehicle: carboxymethylcellulose (CMC) 92 % of control | dose: 200.0 mg/kg/injection, schedule: Q01DX001 (ip), vehicle: carboxymethylcellulose (CMC) 99 % of control | dose: 400.0 mg/kg/injection, schedule: Q01DX001 (ip), vehicle: carboxymethylcellulose (CMC) 97 % of control

O=C1NC(CCO)C(=O)NC1CCO (centres undefined)
inactive: [13] 97 % of control | [7] 100 % of control | [14] 112 % of control | [8] 97 % of control | [15] 104 % of control | [9] 100 % of control

CCN(N=O)C(=O)NC1C(O)OC(CO)C(O)C1O (centres undefined)
inactive: dose: 25.0 mg/kg/injection, schedule: Q01DX009 (ip), vehicle: other 100 % of control | dose: 50.0 mg/kg/injection, schedule: Q01DX009 (ip), vehicle: other 118 % of control | dose: 100.0 mg/kg/injection, schedule: Q01DX009 (ip), vehicle: other 113 % of control | dose: 200.0 mg/kg/injection, schedule: Q01DX009 (ip), vehicle: other 112 % of control

Cc1ccc(C[n+]2cc([O-])on2)cc1C
inactive: dose: 100.0 mg/kg/injection, schedule: Q01DX Z (ip), vehicle: saline 105 % of control | dose: 200.0 mg/kg/injection, schedule: Q01DX Z (ip), vehicle: saline 93 % of control

NNC(=O)OC12CC3CC(CC(C3)C1)C2
inactive: dose: 25.0 mg/kg/injection, schedule: Q01DX009 (ip), vehicle: saline with Tween-80 90 % of control | [6] 88 % of control | [1] 98 % of control | [2] 94 % of control

FC(F)(F)c1ccc(Cl)c(NC2=NCCCS2)c1
inactive: dose: 10.0 mg/kg/injection, schedule: Q01DX009 (ip), vehicle: saline 107 % of control | dose: 20.0 mg/kg/injection, schedule: Q01DX009 (ip), vehicle: saline 97 % of control | dose: 40.0 mg/kg/injection, schedule: Q01DX009 (ip), vehicle: saline 96 % of control | dose: 75.0 mg/kg/injection, schedule: Q01DX009 (ip), vehicle: saline 95 % of control | [16] 96 % of control | [11] 97 % of control | [17] 97 % of control | [12] 95 % of control | [18] 94 % of control

CN=C(N)Nc1ccccc1
inactive: [6] 97 % of control | [13] 101 % of control | [1] 90 % of control | [14] 101 % of control | [3] 97 % of control | [15] 101 % of control

CSc1cccc(C(=O)O)c1
inactive: [4] 102 % of control | [5] 102 % of control | dose: 400.0 mg/kg/injection, schedule: Q01DX001 (ip), vehicle: Klucel (hydroxypropylcellulose) (HPC) 94 % of control

Nc1ccc(S(=O)(=O)CCCl)cc1
inactive: dose: 100.0 mg/kg/injection, schedule: Q04DX002 (ip), vehicle: Klucel (hydroxypropylcellulose) (HPC) 89 % of control | dose: 200.0 mg/kg/injection, schedule: Q04DX002 (ip), vehicle: Klucel (hydroxypropylcellulose) (HPC) 100 % of control | dose: 400.0 mg/kg/injection, schedule: Q04DX002 (ip), vehicle: Klucel (hydroxypropylcellulose) (HPC) 100 % of control

CCOC(OCC)C(=O)NNC(C)C
inactive: dose: 25.0 mg/kg/injection, schedule: Q01DX009 (ip), vehicle: saline 95 % of control | [13] 97 % of control | [14] 108 % of control

CNC(=O)N(C)Cc1ccco1
inactive: [10] 91 % of control | [16] 102 % of control | [17] 101 % of control

O=S(=O)(Nc1nccs1)c1ccc(NN=Nc2c(Cl)cc(Cl)cc2Cl)cc1
inactive: [16] 96 % of control | [17] 96 % of control | [19] 97 % of control

CCOC(=O)Nc1ccc(OC)cc1
inactive: [16] 96 % of control | [11] 103 % of control | [17] 98 % of control | [12] 97 % of control | [19] 93 % of control | [18] 98 % of control

ClC(Cl)=C(Cl)C(Cl)=C(Cl)Cl
inactive: dose: 3.13 mg/kg/injection, schedule: Q04DX003 (ip), vehicle: Klucel (hydroxypropylcellulose) (HPC) 98 % of control | dose: 6.25 mg/kg/injection, schedule: Q04DX003 (ip), vehicle: Klucel (hydroxypropylcellulose) (HPC) 100 % of control | dose: 12.5 mg/kg/injection, schedule: Q04DX003 (ip), vehicle: Klucel (hydroxypropylcellulose) (HPC) 98 % of control | dose: 100.0 mg/kg/injection, schedule: Q04DX003 (ip), vehicle: carboxymethylcellulose (CMC) 101 % of control
